Like-named read-outs stand apart in the source and are kept apart here. Where only a bound is given, the exact number is not on record here.

What is called Ki is a measure of affinity in units of concentration, obtained from inhibition or displacement. In general, IC50 refers to the concentration at which inhibition is half-maximal. The EC50 is the concentration needed to bring the measured effect to its halfway point.

Test [1] concerns the target T1, 5-HT4 receptor (Cavia porcellus, UniProt O70528).
T1 construct: crude synapse membrane sample was prepared from guinea pig striatum; from tissue; host or cells: guinea pig striatum, crude synaptic membranes
Nature of the test: 5-HT4 receptor binding test. Set-up: species or system guinea pig. On the procedure:
Experimental Example 1 : 5-HT4 receptor binding test
According to the method of C.J. Grossman et al. (British Journal of Pharmacology, vol. 109, pp. 618-624), a specific 5-HT4 receptor binding test was run using, as a tracer ligand, 1-methyl-1H-indole-3-carboxylic acid · 1-(2-methylsulfonylaminoethyl)-piperidin-4-ylmethyl ester substituted by tritium (hereinafter to be referred to as [3H]GR113808). Specifically, crude synapse membrane sample was prepared from guinea pig striatum, suspended in 50 mM HEPES buffer (pH 7.4) and used for testing. The test compound having several different concentrations and [3H]GR113808 (final concentration 0.1 nM) were added to this suspension and allowed to react at 37°C. Thirty minutes later, the reaction mixture was filtered by suction with cell harvester. The filter was washed with 50 mM HEPES buffer, and the radioactivity on the filter was counted by liquid scintillation counter. The non-specific binding was determined in the presence of 1 µM GR113808. The concentration of the test compound necessary for 50% inhibition (IC50) and Ki value were determined from graph.

The target of test [2] is T2, 5-HT3 receptor (Rattus norvegicus, UniProt P35563).
T2 construct: crude synapse membrane sample was prepared from rat cerebral cortex; from tissue; host or cells: rat cerebral cortex, crude synaptic membranes
T2 sequence (P35563 24-483): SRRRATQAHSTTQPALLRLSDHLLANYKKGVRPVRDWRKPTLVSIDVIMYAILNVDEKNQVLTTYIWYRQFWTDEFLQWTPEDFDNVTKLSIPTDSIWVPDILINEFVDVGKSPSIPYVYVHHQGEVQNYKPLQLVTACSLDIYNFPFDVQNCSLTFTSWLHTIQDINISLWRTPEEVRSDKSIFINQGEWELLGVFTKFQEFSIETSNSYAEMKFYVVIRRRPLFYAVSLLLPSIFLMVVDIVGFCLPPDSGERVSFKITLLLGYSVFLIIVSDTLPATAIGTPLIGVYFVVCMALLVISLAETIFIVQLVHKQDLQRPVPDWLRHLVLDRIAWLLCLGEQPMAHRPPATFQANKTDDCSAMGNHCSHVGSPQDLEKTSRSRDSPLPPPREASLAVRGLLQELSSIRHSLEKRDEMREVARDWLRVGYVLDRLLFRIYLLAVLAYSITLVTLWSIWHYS
Nature of the test: 5-HT3 receptor binding test. As to conditions: for Ki: cells without asterisk, read-out: Affinity for receptor (Ki value, nM) 5-HT3. On the procedure:
Experimental Example 2 : 5-HT3 receptor binding test
According to the method of Peroutka et al (European Journal of Pharmacology, vol. 148, pp. 297-299), a specific 5-HT3 receptor binding test was run using, as a tracer ligand, endo-1-methyl-N-(9-methyl-9-azabicyclo[3.3.1]non-3-yl)-1H-indazole-3-carboxamide substituted by tritium (hereinafter to be referred to as [3H]Granisetron). Specifically, crude synapse membrane sample was prepared from rat cerebral cortex, suspended in 50 mM HEPES buffer (pH 7.4) and used for testing. The test compound having several different concentrations and [3H]Granisetron (final concentration 1.0 nM) were added to this suspension and allowed to react at 25°C. Thirty minutes later, the reaction mixture was filtered by suction with cell harvester. The filter was washed with 50 mM Tris buffer (pH 7.4), and the radioactivity on the filter was counted using liquid scintillation counter or β-plate. The non-specific binding was determined in the presence of 1 µM Tropisetron. The concentration of the test compound necessary for 50% inhibition (IC50) and Ki value were determined from graph.

Test [3] concerns the target isolated guinea pig ascending colon (Cavia porcellus, UniProt O70528). As to the kind of experiment: contraction of isolated guinea pig ascending colon. It is filed as cell-based. The note with it: male Hartley guinea pig ascending colon, Tyrode solution 37°C, relative to methacholine (30 µM) contraction; read-out: Contraction of removed colon (EC50). The procedure: Experimental Example 3 : contraction of isolated guinea pig ascending colon
About 3 cm long ascending colon segment was taken from male Hartley guinea pig and suspended in 10 ml of a Tyrode solution ventilated with a mixed gas of oxygen (95%) and CO2 (5%) at 37°C with the load of 2 g. The contraction was isotonically measured via isotonic transducer. After an equilibrium period of about 30 min, the test compound was administered non-cumulatively from lower concentrations, and dose-dependent contraction was measured. The test compound was administered at 15 minutes intervals. Then, contraction by the test compound in the presence of a 5-HT4 receptor antagonist, 4-amino-3-chloro-6-methoxybenzoic acid · 2-diethylaminoethyl ester (0.3 µM, hereinafter to be referred to as SDZ 205-557) was determined, and antagonistic effect on the reaction by SDZ 205-557 was confirmed.
The contraction by the test compound was evaluated based on the ratio of reaction relative to mean contraction induced by methacholine (30 µM) administered before and after each determination of dose-dependent contraction. The contraction was probit-converted using the maximum value of dose-response curve as 100, and expressed by EC50 as determined from linear regression and maximum reaction ratio.

The mark [4] stands for this setting: [3H]GR113808 0.1 nM, crude synapse membrane from guinea pig striatum, 37°C, read-out: Affinity for receptor (Ki value, nM) 5-HT4.
Where [5] appears, read: [3H]Granisetron 1.0 nM, crude synapse membrane from rat cerebral cortex, 25°C, cells marked * are IC50, read-out: Affinity for receptor 5-HT3 (∗ shows IC50).
The mark [6] stands for this setting: [3H]Granisetron 1.0 nM, crude synapse membrane from rat cerebral cortex, 25°C.

T1 sequence (O70528 whole entry): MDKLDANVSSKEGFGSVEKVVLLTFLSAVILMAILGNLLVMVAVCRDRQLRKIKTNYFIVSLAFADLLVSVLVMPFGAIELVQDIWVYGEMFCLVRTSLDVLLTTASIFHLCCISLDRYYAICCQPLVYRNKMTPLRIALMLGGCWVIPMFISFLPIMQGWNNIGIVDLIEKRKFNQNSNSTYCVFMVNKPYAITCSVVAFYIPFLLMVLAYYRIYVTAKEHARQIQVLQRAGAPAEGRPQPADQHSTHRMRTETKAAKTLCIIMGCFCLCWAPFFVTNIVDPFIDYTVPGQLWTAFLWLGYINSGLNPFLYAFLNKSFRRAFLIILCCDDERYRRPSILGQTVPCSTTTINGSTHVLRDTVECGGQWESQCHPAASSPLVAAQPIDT
Chain of isolated guinea pig ascending colon (O70528 whole entry): as above

Take `COc1cc(N)c(Cl)cc1C(=O)NC[C@H]1CCN(CCCNC(=O)c2ccccc2)C1` [Example 11, 4-amino-N-((3R)-1-(3-benzoylaminopropyl)pyrrolidin-3-ylmethyl)-5-chloro-2-methoxybenzamide]: in test [1] (setting [4]), the Ki was found to be 6.2 nM. Moreover, the IC50 in test [2] (setting [5]) was greater than 1000 nM.

Consider `COc1cc(N)c(Cl)cc1C(=O)NCC1CCN(CCCNC(=O)c2ccc(Cl)cc2)C1` (stereo not drawn) [Example 13, 4-amino-5-chloro-N-(1-(3-(4-chlorobenzoylamino)propyl)pyrrolidin-3-ylmethyl)-2-methoxybenzamide], for which the Ki in test [1] (setting [4]) turned out to be 3.1 nM. The IC50 in test [2] (setting [5]) was greater than 1000 nM.

Regarding `COc1cc(N)c(Cl)cc1C(=O)NCC1CCN(CCCNC(=O)c2ccc(C)cc2)C1` (stereo not drawn) [Example 17, 4-amino-5-chloro-2-methoxy-N-(1-(3-(4-methylbenzoylamino)propyl)pyrrolidin-3-ylmethyl)benzamide], the Ki in test [1] (setting [4]) amounted to 3.1 nM. Also, the IC50 in test [2] (setting [5]) is greater than 1000 nM.

In the case of `COc1cc(N)c(Cl)cc1C(=O)NCC1CCN(CCCNC(=O)c2cccs2)C1` (stereo not drawn) [Example 19, 4-amino-5-chloro-2-methoxy-N-(1-(3-(2-thiophenecarbonylamino)propyl)pyrrolidin-3-ylmethyl)benzamide], in test [1] (setting [4]), the inhibitory constant (Ki) amounted to 4.4 nM. Moreover, in test [2] (setting [5]), the IC50 is greater than 1000 nM.

For `COc1cc(N)c(Cl)cc1C(=O)NC[C@H]1CCN(CCCCNC(=O)c2cccc3ccccc23)C1` [Example 22, 4-amino-5-chloro-2-methoxy-N-((3R)-1-(4-(1-naphthoylamino)butyl)pyrrolidin-3-ylmethyl)benzamide], the Ki in test [1] (setting [4]) came to 1.3 nM. Further, in test [2] (setting [5]), the IC50 is greater than 1000 nM. The EC50 in test [3] amounted to 3.3 nM.

With `COc1cc(N)c(Cl)cc1C(=O)NCC1CCN(CCCCNC(=O)c2cccc3ccccc23)CC1` [Example 24, 4-amino-5-chloro-2-methoxy-N-(1-(4-(1-naphthoylamino)butyl)piperidin-4-ylmethyl)benzamide], in test [1] (setting [4]), the Ki was 1.6 nM. Besides, the IC50 in test [2] (setting [5]) was greater than 1000 nM. In addition, in test [3], the EC50 was 3.9 nM.

On to `COc1cc(N)c(Cl)cc1C(=O)NCC1CCN(CCCCNC(=O)c2ccc3ccccc3c2)CC1` [Example 25, 4-amino-5-chloro-2-methoxy-N-(1-(4-(2-naphthoylamino)butyl)piperidin-4-ylmethyl) benzamide], for which, in test [1] (setting [4]), the Ki worked out at 1.4 nM. Also, the IC50 in test [2] (setting [5]) was greater than 1000 nM. In addition, in test [3], the EC50 came to 4.6 nM.

Take `COc1cc(N)c(Cl)cc1C(=O)NC[C@H]1CCN(CCCCCNC(=O)c2ccccc2)C1` [Example 27, 4-amino-N-((3R)-1-(5-benzoylaminopentyl)pyrrolidin-3-yl-methyl)-5-chloro-2-methoxybenzamide]: the Ki in test [1] (setting [4]) worked out at 2.2 nM. For the same molecule, the IC50 in test [2] (setting [5]) is greater than 1000 nM. Moreover, the EC50 in test [3] was found to be 5.3 nM.

For `COc1cc(N)c(Cl)cc1C(=O)NCC1CCN(CCCCCNC(=O)c2ccccc2)CC1` [Example 29, 4-amino-N-(1-(5-benzoylaminopentyl)piperidin-4-ylmethyl)-5-chloro-2-methoxybenzamide], the inhibition constant (Ki) in test [1] (setting [4]) worked out at 1.7 nM. Further, the IC50 in test [2] (setting [5]) was greater than 1000 nM. Besides, in test [3], the EC50 stood at 3.7 nM.

Regarding `COc1cc(N)c(Cl)cc1C(=O)NCC1CCN(CCCCCNC(=O)c2cccc(Cl)c2)CC1` [Example 30, 4-amino-5-chloro-N-(1-(5-(3-chlorobenzoylamino)pentyl)piperidin-4-ylmethyl)-2-methoxybenzamide], the Ki in test [1] (setting [4]) amounted to 0.81 nM. For the same molecule, the IC50 in test [2] (setting [5]) is greater than 1000 nM. Also, the EC50 in test [3] is 1.6 nM.

Regarding `COc1cc(N)c(Cl)cc1C(=O)NCC1CCN(CCCCCNC(=O)c2ccc(C)cc2)CC1` [Example 31, 4-amino-5-chloro-N-(1-(5-(4-methylbenzoylamino)pentyl)piperidin-4-ylmethyl)-2-methoxybenzamide], the Ki in test [1] (setting [4]) was 2.3 nM. Further, the IC50 in test [2] (setting [5]) is greater than 1000 nM.

In the case of `CCCNC(=O)NCCCCN1CCC(CNC(=O)c2cc(Cl)c(N)cc2OC)CC1` [Example 45, 4-amino-5-chloro-2-methoxy-N-(1-(4-(3-n-propylureido)butyl)piperidin-4-ylmethyl)benzamide], the Ki in test [1] (setting [4]) turned out to be 5.5 nM. The IC50 in test [2] (setting [5]) is greater than 1000 nM.

Regarding `CCCNC(=O)NCCCCCN1CC[C@H](CNC(=O)c2cc(Cl)c(N)cc2OC)C1` [Example 46, 4-amino-5-chloro-2-methoxy-N-((3R)-1-(5-(3-n-propylureido)pentyl)pyrrolidin-3-ylmethyl)benzamide], the Ki in test [1] (setting [4]) was determined as 1.5 nM. The IC50 in test [2] (setting [5]) was greater than 1000 nM. Also, the EC50 in test [3] amounted to 6.9 nM.

With `COc1cc(N)c(Cl)cc1C(=O)NCC1CCN(CCCCCNC(=O)Nc2ccc(Cl)cc2)CC1` [Example 59, 4-amino-5-chloro-N-(1-(5-(3-(4-chlorophenyl)ureido)pentyl)-piperidin-4-ylmethyl)-2-methoxybenzamide], the Ki in test [1] (setting [4]) was 1.1 nM; in test [2] (setting [6]), 190 nM.

Take `COc1cc(N)c(Cl)cc1C(=O)NCC1CCN(CCCC(=O)Nc2ccccc2)C1` (stereo not drawn) [Example 71, 4-amino-5-chloro-2-methoxy-N-(1-(3-phenylcarbamoylpropyl)pyrrolidin-3-ylmethyl)benzamide]: in test [1] (setting [4]), the Ki is 7.4 nM. Also, in test [2] (setting [5]), the IC50 was greater than 1000 nM.

In the case of `COc1cc(N)c(Cl)cc1C(=O)NCCCCCN1CC[C@H](CNC(=O)c2cc(Cl)c(N)cc2OC)C1` [Example 78, 4-amino-N-((3R)-1-(5-(4-amino-5-chloro-2-methoxybenzoylamino)pentyl)pyrrolidin-3-ylmethyl)-5-chloro-2-methoxybenzamide], the figures for the Ki in test [1] (setting [4]) and in test [2] (setting [6]) were 1.4 nM and 370 nM, respectively.

In test [1], `COc1cc(N)c(Cl)cc1C(=O)NC[C@H]1CCN(CCCCNC(=O)c2cn(C(C)C)c3ccccc23)C1` [Example 94, N-(4-((3R)-3-(4-amino-5-chloro-2-methoxybenzoylaminomethyl)pyrrolidin-1-yl)butyl)-1-isopropyl-1H-indole-3-carboxamide] had a Ki of 3.5 nM. The molecule also registered an IC50 in test [2] greater than 1000 nM.

For `COc1cc(N)c(Cl)cc1C(=O)NC[C@H]1CCN(CCCCNC(=O)c2cn(Cc3ccccc3)c3ccccc23)C1` [Example 95, N-(4-((3R)-3-(4-amino-5-chloro-2-methoxybenzoylaminomethyl)pyrrolidin-1-yl)butyl)-1-benzyl-1N-indole-3-carboxamide], in test [1] (setting [4]), the Ki turned out to be 1.2 nM. The IC50 in test [2] (setting [5]) is greater than 1000 nM.

For `COc1cc(N)c(Cl)cc1C(=O)NC[C@H]1CCN(CCNC(=O)CCCc2ccccc2)C1` [Example 100, 4-amino-5-chloro-2-methoxy-N-((3R)-1-(2-(4-phenylbutyrylamino)ethyl)pyrrolidin-3-ylmethyl)benzamide], the Ki in test [1] (setting [4]) was determined as 5.3 nM. Moreover, the IC50 in test [2] (setting [5]) was greater than 1000 nM.

For the origin of these results see patent EP0774460A1, “BENZOIC ACID COMPOUND AND USE THEREOF AS MEDICINE” (YOSHITOMI PHARMACEUTICAL INDUSTRIES, LTD., priority 1994, dated 1995).
